Laboratory results published in publication PMC9828254, “Identification of Dihydroorotate Dehydrogenase Inhibitors Using the Cell Painting Assay” (Chembiochem, 2022).
“Also recorded” adds a separate entry of the source.

Columns and labels:
[1] = tested on: U2OS cells; assay: Cell Painting assay (CPA), morphological fingerprints; type: cell-based, human; conditions: for biosimilarity (BioSim) to IPP/CNRS-A017 / biosimilarity (BioSim) to brequinar: concentration not given, similar if biosimilarity >75 %; for BioSim [%] (biosimilarity) to brequinar: reference fingerprint brequinar 10 μM; for BioSim [%] (biosimilarity) to IPP/CNRS-A017: reference fingerprint IPP/CNRS-A017 5 μM
Procedure: Therefore, the definition of bioactivity clusters is crucial for proper hypothesis generation for uncharacterized small molecules that are subjected to the CPA and requires thorough inspection of the CPA fingerprints of reference compounds.[[2b], [9], [10]] […] For the CPA, human osteosarcoma U2OS cells were treated with compounds for 20 h prior to detection of cellular components and compartments (DNA, RNA, mitochondria, Golgi, endoplasmic reticulum (ER), actin, plasma membrane) using six different dyes. Morphological features are extracted and differences to the control (cells that were treated with DMSO) are expressed as Z scores. The CPA fingerprints used in this study compile Z scores for 579 features. […] Myxothiazol is an inhibitor of complex III of the mitochondrial electron transport chain.[15] Whereas de novo biosynthesis of pyrimidines takes place in the cytosol, DHODH is the only enzyme of the pyrimidine biosynthesis pathway that is localized at the inner mitochondrial membrane.[16] DHODH catalyzes the oxidation of dihydroorotate (DHO) to orotate by transferring electrons from DHO via the cofactor FMN to ubiquinone to yield ubiquinol. Electrons from ubiquinol are transferred further to complex III (cytochrome b,c1 complex), thereby recycling […] that is required for DHODH activity. In this way, pyrimidine biosynthesis is tightly coupled to the activity of complex III, which ensures that pyrimidine nucleotides and, thus, DNA and RNA are synthesized only if cells are supplied with sufficient amount of ATP via the mitochondrial respiratory chain. Alternatively, cells can replenish their pyrimidine pools via the salvage pathway by uptake of circulating pyrimidines.[5] Whereas proliferating cells rely on de novo pyrimidine biosynthesis to meet the high demand for nucleotides, the salvage pathway is used by resting and fully differentiated cells.[5]
The cell painting assay: The Cell Painting assay[25] was performed as described previously.[[9a], [26]] U2OS medium (5 μL) was added to each well of a 384‐well plate (PerkinElmer CellCarrier‐384 Ultra) prior to addition of 1,600 U2OS cells per well and incubation for 4 h at 37 °C. Standard stock concentration of compounds was 10 mM. […] Compounds were added to the cells using the Echo 520 acoustic dispenser (Labcyte) followed by incubation for 20 h at 37 °C. Subsequently, mitochondria were stained with 0.1 μg/μL Mito Tracker Deep Red for 30 min at 37 °C in the dark. Cells were fixed using 3.7 % formaldehyde (in PBS) for 20 min at 37 °C in the dark. Cells were washed three times using PBS before permeabilization using Triton X‐100 for 15 min 37 °C in the dark. After three additional washing steps, 25 μL of a staining solution were added to each well, which contained 1 % BSA, 5 μL/mL Phalloidin (Alexa594 conjugate, Thermo Fisher Scientific, A12381), 25 μg/mL Concanavalin A (Alexa488 conjugate, Thermo Fisher Scientific, Cat. No. C11252), 5 μg/mL Hoechst 33342 (Sigma, Cat. No. B2261‐25 mg), 1.5 μg/mL WGA‐Alexa594 conjugate (Thermo Fisher Scientific, Cat. No. W11262) and 1.5 μM SYTO 14 solution (Thermo Fisher Scientific, Cat. No. S7576). Plates were incubated for 30 min at 37 °C in the dark and washed three times with PBS. Plates were sealed and centrifuged for 1 min at 500 rpm. The plates were prepared in triplicates with shifted layouts to reduce plate effects and imaged using a Micro XL High‐Content Screening System (Molecular Devices) in 5 channels (DAPI: Ex350‐400/Em410‐480; FITC: Ex470‐500/Em510‐540; Spectrum Gold: Ex520‐545/Em560‐585; TxRed: Ex535‐585/Em600‐650; Cy5: Ex605‐650/Em670‐715) with 9 sites per well and 20× magnification (binning 2).
Generated images were processed with the CellProfiler package[27] (https://cellprofiler.org, version 3.0.0) on a computing cluster of the Max Planck Society to extract 1716 cell features. The data was then further aggregated as medians per well (9 sites→1 well), then over the three replicates.

[2] = tested on: U2OS cells; conditions: 100 μM uridine
Procedure: (§1) DHODH rescue assay: 2,000 HCT116 or U2OS cells per well were seeded in a clear 96‐well plate and incubated as described above overnight prior to treatment. The next day, the medium was replaced by fresh compound or DMSO containing medium supplemented with control solvent or uridine (100 μM), OA (1.5 mM) or DHO (1.5 mM). Cell growth was monitored every 2 h for a total of 96 h after treatment start using an IncuCyte S3 (Essen BioScience). The cell confluence was quantified as a measure of cell growth using the IncuCyte S3 software (Essen BioScience).

[3] = tested on: HCT116 cells; assay: DHODH rescue assay / cell growth (cell confluence, IncuCyte); type: cell-based; conditions: for rescue of cell growth by uridine: 100 μM uridine, 96 h; for rescue of cell growth by orotate (OA): 1.5 mM OA; for influence on cell growth (cell confluence): monitored over 96 h
Procedure: Figure 3 Influence of compounds on cell growth and DHODH activity. (A–C) HCT116 cells were treated with the compounds or DMSO as a control in presence or absence of 100 μM uridine. Cell confluence as a measure of cell growth was monitored over 96 h using IncuCyte ZOOM/S3. (A) Brequinar (BRQ). (B) Myxothiazol (MXT). […] (D–E) In vitro DHODH activity. […] (F) Influence of compound 7 on complex III activity. All data are mean values of three biological replicates (n=3)±SD.
as §1

[4] = target: T1, Human DHODH (Homo sapiens, UniProt Q02127); assay: DHODH enzymatic assay (DCPIP reduction); type: biochemical; conditions: for inhibition at 10 µM: 30 min preincubation, read-out: reduction (inhibition) of in vitro DHODH activity
T1 construct: 40 μL of purified DHODH (aa31–395, final concentration: 1.25 μg/mL); made in house; host or cells: E. coli BL21 (DE3)
T1 sequence (Q02127 31-395): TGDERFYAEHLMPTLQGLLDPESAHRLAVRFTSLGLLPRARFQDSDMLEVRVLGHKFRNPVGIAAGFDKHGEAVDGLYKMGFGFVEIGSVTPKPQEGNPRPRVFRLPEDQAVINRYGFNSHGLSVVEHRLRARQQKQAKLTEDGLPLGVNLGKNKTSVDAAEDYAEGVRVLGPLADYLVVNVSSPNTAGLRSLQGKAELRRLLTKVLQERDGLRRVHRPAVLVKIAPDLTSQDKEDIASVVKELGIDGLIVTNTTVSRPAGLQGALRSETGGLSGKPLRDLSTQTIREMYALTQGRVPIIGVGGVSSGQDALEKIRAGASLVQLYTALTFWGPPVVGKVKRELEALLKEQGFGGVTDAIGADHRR
Procedure: Expression was induced by adding 0.8 mM IPTG (AppliChem, A1008,0025) and temperature was reduced to 28 °C for 6 hours. […] The clarified supernatant was loaded to the column and washed with PBS (1 mL/min) for 2 h, followed by elution with 10 mM L‐glutathione (Sigma Aldrich, G4251) in PBS. The GST tag was not removed for further analysis. Factions containing hDHODH‐GST protein were pooled, concentrated with centrifugal filters (Ultra‐50 K, Merck Millipore, UFC905096) and shock‐frozen for further analysis. Protein concentration was determined by Bradford measurement.
DHODH enzymatic assay: Enzymatic activity of DHODH was assessed by monitoring the reduction of 2,6‐dichlorophenolinindophenol (DCPIP), which is coupled to the oxidation of dihydroorotate by DHODH. […] The reaction was initiated by adding 50 μL mastermix (2 mM L‐dihydroorotic acid, 0.2 mM decylubiquonone, 0.12 mM 2,6 dichlorphenolindophenol (DCPIP) in assay buffer). DCPIP reduction was monitored at λ=600 nm using Tecan Spark plate reader for 20 min.

[5] = tested on: U2OS cells; design: method as in earlier work; conditions: ref 9b; cited from earlier work
[6] = target: T2, complex III (Bos taurus, UniProt P00157); assay: MitoTox complex II+III OXPHOS activity assay kit; type: biochemical; conditions: bovine heart mitochondria; Figure 3F
T2 construct: tissue Abcam ab109905; host or cells: bovine heart mitochondria
Procedure: MitoTox™ complex II+III OXPHOS activity assay kit: The assay was performed using the MitoTox™ Complex II+III OXPHOS Activity Assay Kit (ab109905, Abcam) according to the manufacturer's instructions. Compounds or DMSO as a control was mixed with succinate solution (electron donor) and oxidized cytochrome c (electron acceptor) in the presence of complex IV inhibitor […] (2 mM, 60168, Sigma Aldrich) and complex I inhibitor Rotenone (12 μM, R8875, Sigma Aldrich). To start the electron transfer reaction, bovine heart mitochondria (0.03 mg/mL) were added to the mixture and conversion of oxidized cytochrome c into the reduced form was monitored for 5 min at 550 nm using the Tecan Spark plate reader.

[7] = Conc 10 μM, 20 h, percentage of significantly altered features
[8] = Homo sapiens, U2OS, Conc 10 μM, 20 h, read-out: Cell count [%]
[9] = 96 h, 2, 6, 7 at 10 μM, 4 at 30 μM
[10] = complex III inhibitors, Figure S8, concentration not given

Cc1c(-c2ccc(-c3ccccc3F)cc2)nc2ccc(F)cc2c1C(=O)O [Brequinar, brequinar]
Ind [%] (induction) [1, 7]: 36% | viability at 10 µM [1, 8]: 89% | biosimilarity to the fingerprint of methotrexate ([1]; full fingerprints, Figure S3A and S3B): lack of biosimilarity | BioSim [%] (biosimilarity) to myxothiazol ([1]; reference fingerprint myxothiazol 10 μM, compound Conc 10 μM): 84% | rescue of cell growth by uridine [2]: completely rescue | rescue of cell growth by uridine [3]: completely rescue; also recorded: full cell growth recovery | rescue of cell growth by dihydroorotate (DHO) ([3]; 1.5 mM DHO, 96 h, 2, 6, 7 at 10 μM, 4 at 30 μM): could not restore | rescue of cell growth by orotate (OA) [3, 9]: rescued normal cell proliferation

Cc1c(Oc2ccc(F)cc2)c(OC(C)C)nn1-c1ccc(C2CC2)cn1 [Compound 1]
Ind [%] (induction) ([1]; Conc 5 μM, 20 h): 10% | viability at 5 µM ([1]; Homo sapiens, U2OS, Conc 5 μM, 20 h, read-out: Cell count [%]): 105% | biosimilarity (BioSim) to IPP/CNRS-A017 [1]: not biosimilar | biosimilarity (BioSim) to brequinar [1]: not biosimilar | BioSim [%] (biosimilarity) to brequinar ([1]; compound Conc 5 μM): 39%

CN1C(=O)[C@@]2(C(=O)N(Cc3ccncc3)c3ccc(OC(F)(F)F)cc32)c2ccccc21 [Compound 2]
viability at 10 µM [1, 8]: 90% | influence on in vitro DHODH activity, in words ([4]; 10 μM compound): only moderately inhibited | inhibition at 10 µM ([4]; 10 μM compound): 27 to 44% | rescue of cell growth by orotate (OA) [3, 9]: relieved

COc1ccc2[nH]c3c(c2c1)CCO[C@]31CC[C@@]2(Oc3c(Cl)c(OC)cc(OC)c3C2=O)[C@H](C)C1 [Compound 3]
viability at 3 µM ([1]; Homo sapiens, U2OS, Conc 3 μM, 20 h, read-out: Cell count [%]): 94% | inhibition at 10 µM ([4]; 10 μM compound): > 50%

COc1cc(OC)c2c(c1Cl)O[C@@]1(CC[C@@]3(C[C@H]1C)OCCc1c3[nH]c3ccc(C)cc13)C2=O [Compound 4]
viability at 10 µM [1, 8]: 81% | influence on in vitro DHODH activity, in words ([4]; 10 μM compound): only moderately inhibited | inhibition at 10 µM ([4]; 10 μM compound): 27 to 44% | rescue of cell growth by orotate (OA) [3, 9]: relieved

O=C(Nc1cccnc1)N1Cc2cccc(c2)CN(S(=O)(=O)C(F)(F)F)CC/C=C/C[C@@H]1CO [Compound 5]
viability at 10 µM [1, 8]: 82% | BioSim [%] (biosimilarity) to IPP/CNRS-A017 ([1]; compound Conc 10 μM): 87% | BioSim [%] (biosimilarity) to brequinar ([1]; compound Conc 10 μM): 84% | inhibition at 10 µM ([4]; 10 μM compound): > 50% | IC50 ([4]; dose-response, n=3 ± SD, read-out: IC50 for inhibition of DHODH): 6.2 ± 3 µM | CPA fingerprint similarity to the iron chelator deferoxamine [5]: 80% | cells in S phase (analysis of CPA fingerprints) [5]: accumulation of cells in S phase; also recorded: increase in the percentage of cells in S phase

Brc1ccc2[nH]c3c(c2c1)CCOC31CCCCC1 [Compound 6]
viability at 10 µM [1, 8]: 88% | BioSim [%] (biosimilarity) to IPP/CNRS-A017 ([1]; compound Conc 10 μM): 87% | BioSim [%] (biosimilarity) to brequinar ([1]; compound Conc 10 μM): 84% | influence on in vitro DHODH activity, in words ([4]; 10 μM compound): only moderately inhibited | inhibition at 10 µM ([4]; 10 μM compound): 27 to 44% | CPA fingerprint similarity to the iron chelator deferoxamine [5]: 81% | cells in S phase (analysis of CPA fingerprints) [5]: accumulation of cells in S phase; also recorded: increase in the percentage of cells in S phase | rescue of cell growth by orotate (OA) [3, 9]: relieved

CC(=O)Oc1c(C[C@]23CCOC4(CCCCC4)C2=Nc2ccc(Br)cc23)occc1=O [Compound 7]
viability at 10 µM [1, 8]: 93% | influence on in vitro DHODH activity, in words ([4]; 10 μM compound): inactive; also recorded: did not have any influence | influence on complex III activity [6]: did not impair | rescue of cell growth by orotate (OA) [3, 9]: relieved

CO/C(=C/C(N)=O)[C@H](C)[C@H](/C=C/c1csc(-c2csc([C@@H](C)/C=C/C=C/C(C)C)n2)n1)OC [Myxothiazol, myxothiazol]
Cell count [%] ([1]; Conc 10 μM, 20 h): 73% | Ind [%] (induction) [1, 7]: 46% | biosimilarity (BioSim) to brequinar [1]: biosimilar | influence on in vitro DHODH activity, in words [4, 10]: do not inhibit | rescue of cell growth by uridine [3]: only partly restored normal cell growth | influence on cell growth (cell confluence) [3]: suppressed the growth | influence on cell growth (cell confluence) ([3]; listed as myxothiazol): growth arrest

NC(=O)c1[nH]nc([C@@H]2O[C@H](CO)[C@@H](O)[C@H]2O)c1O [Pyrazofurin, pyrazofurin]
viability at 10 µM [1, 8]: 97% | biosimilarity (BioSim) to IPP/CNRS-A017 [1]: high biosimilarity | biosimilarity (BioSim) to brequinar [1]: high biosimilarity | rescue of cell growth by uridine [3]: fully rescued | influence on cell growth (cell confluence) [3]: suppressed the growth

CCCCCC[C@H]1C(=O)O[C@H](C)[C@H](NC(=O)c2cccc(NC=O)c2O)C(=O)O[C@@H](C)[C@@H]1OC(=O)CC(C)C [antimycin A]
biosimilarity (BioSim) to brequinar [1]: biosimilar | influence on in vitro DHODH activity, in words [4, 10]: do not inhibit | influence on cell growth (cell confluence) [3]: growth arrest
